# Literature values, collected in patent US20040092519A1, “New treatment for hot flashes” (priority 2002, published 2004).
# Assays:
# [1] = transdermal; some patients
# [2] = low doses; men and women
structure (smiles),measurement,setting,value
Clc1cccc(Cl)c1N=C1NCCN1 [clonidine],side effects,[1],"drowsiness, fatigue, and symptoms of low blood pressure"
CC(=O)O[C@]1(C(C)=O)CC[C@H]2[C@@H]3C=C(C)C4=CC(=O)CC[C@]4(C)[C@H]3CC[C@@]21C [megestrol acetate],frequency of hot flashes,[2],reduce the frequency of hot flashes
